# Key:
# Flk1+ MPCs [1] = experiment: Differentiation and expansion of ECs from Flk1+ MPCs in feeder cell-free 2D Matrigel system, FACS of CD31+/CD144+ ECs; assay type: cell-based, mouse; details: for EC population: other ROCK inhibitors
# Procedure: E14tg2a ESC cell line was a generous gift from Dr. Jun K. Yamashita (Kyoto University), and R1 ESC cell line was purchased from American Type Cell Culture. Mouse iPSC derived from FVB strain was a generous gift from Drs. Hyun-Jai Cho and Hyo-Soo Kim (Seoul National University Hospital). To obtain Flk1+ MPCs, ESCs and iPSCs were cultured on 0.1% gelatin-coated plates at a density of 1-2×10^3 cells/cm^2 in differentiation medium [┌−minimal essential medium (Invitrogen) supplemented with 10% fetal bovine serum (FBS)] without leukemia inhibitory factor (LIF). At day 4.5, the Flk1+ MPCs were purified by AutoMACS™Pro Separator (Miltenyi Biotec) with biotin-conjugated anti-mouse Flk1 antibody (clone AVAS12a1, eBioscience) and streptavidin MicroBeads (Miltenyi Biotec). The Flk1+MPCs were then subsequently plated onto Matrigel (BD Biosciences)-coated plates at a density of 1˜2×10^4 cells/cm^2, and were cultured in differentiation medium supplemented with VEGF-A165 (50 ng/ml, Peprotech). To purify the ECs from the differentiating Flk1+ cells, the cells were first dissociated and resuspended in HBSS/2% FBS, and were serially incubated with anti-mouse ICAM2 antibody (rat monoclonal, clone 3C4, Biolegend) for 10 min and with anti-rat IgG Microbead (Miltenyi Biotec) for 15 min. […] VEGF-Trap was prepared as previously described. Various signaling inhibitors and activators including SB203580, PD98059, KT5720, Go6976, KT5823, LY294002, rapamycin, Y27632, SB431542, Rho-kinase inhibitor (RKI; H-1152, isoquinolinesulfonamide), and Rho-kinase inhibitor II (RKI-II; pyridyl urea) were purchased from Calbiochem and Sigma-Aldrich.
# Cells were harvested with 0.25% trypsin-EDTA (Invitrogen) or dissociation buffer (Invitrogen) and resuspended in HBSS/2% FBS at 1×10^6 cells per 100┌ l. The cells were incubated for 20 min with the following antibodies: biotin-conjugated anti-mouse Flk1 (clone AVAS12a1, eBioscience), allophycocyanin (APC)-conjugated anti-mouse CD140a (clone APA5, eBioscience), phycoerythrin(PE)-conjugated anti-mouse CD31 (clone 390, eBioscience), Alexa Fluor® 647-conjugated anti-mouse CD144 (clone BV13, eBioscience), PE-conjugated anti-mouse D114 (clone HMD4-1, Biolegend), PE-conjugated anti-mouse Tie2 (clone TEK4, eBioscience), PE-conjugated anti-mouse Endoglin (clone MJ7/18, Biolegend), anti-mouse ICAM2 (clone 3C4, Biolegend), APC-conjugated anti-mouse CD140b (clone APBS, eBioscience), PE-conjugated anti-mouse LYVE1 (clone ALY7, eBioscience), anti-mouse VEGFR3 (goat polyclonal, R&D systems), anti-mouse EphB4 (clone VEB4-7E4, Hycult biotech), and PE-conjugated anti-mouse Notch1 (clone HMN1-12, Biolegend). After washing in HBSS/2% FBS twice, the cells were incubated with the following secondary antibodies: PE-conjugated streptavidin (eBioscience), PE-conjugated anti-rat IgG2a (eBioscience), and FITC-conjugated anti-goat IgG (Invitrogen). Dead cells were excluded by 7-aminoactinomycin D (7-AAD, Invitrogen).
# Flk1+ MPCs derived from mouse ESCs are capable of differentiating into ECs, hematopoietic cells, mural cells (MCs), and cardiomyocytes. To avoid cell contamination from using feeder cells for differentiation of Flk1+ MPCs, we have established a feeder cell-free 2D Matrigel system (FIG. 1A). Flk1+ MPCs were differentiated from E14tg2a ESC cell line, and when the Flk1+ MPCs were purified at day 4.5 and cultured on Matrigel-coated plates in the differentiation medium, colonies of CD144+ ECs surrounded by ┌ SMA+MCs were formed (FIG. 1B). At day 6.5, population of CD144+/CD31+ ECs grown in differentiation medium was ˜4%, whereas the same EC population was increased up to ˜20% when VEGF-A (50 ng/ml) was supplemented (FIG. 1C). For following experiments, we chose to use 50 ng/ml of VEGF-A (hereafter referred to as VEGF-A) based on its maximal effect on differentiation and expansion of ECs from Flk1+ MPCs.
# Flk1+ MPCs [2] = experiment: Differentiation of MCs from Flk1+ MPCs, FACS of αSMA+ MCs; assay type: cell-based, mouse; details: Y27632 10 μM; ML7 5 μM
# Procedure: FIGS. 11A-11D. ROCK suppression promotes the differentiation of ECs through PTEN-Akt signaling and inhibits the differentiation of MCs through MyPT-MLC signaling. (FIG. 11A) Representative FACS analysis of CD31+/CD144+ ECs incubated with 0.1% DMSO or LY294002 (20┌ M; LY) in the presence of PBS (Control) or Y27632 (10┌ M; Y). (FIG. 11B) % of CD31+/CD144+ EC population. Each group, n=3. *p<0.01 versus 0. Each group, n=3. *p<0.01 versus DMSO; ^#p<0.01 versus Y27632. (FIG. 11C) Representative FACS analysis of ┌ SMA+MCs or CD144+ ECs incubated with 0.1% DMSO or ML7 (5 ┌ M) in the presence of PBS (Control) or Y27632 (10┌ M). (FIG. 11D) % of ┌ SMA+MC population. Each group, n=3. *p<0.01 versus 0. Each group, n=3. *p<0.01 versus DMSO. n.s. represents statistically non-significant.
# Analysis and sorting for CMs were performed at day 10.5. We harvested differentiated Flk1+ MPCs on OP9 cells with 0.25% trypsin-EDTA or dissociation buffer (Invitrogen). Cardiac troponin-T (cTnT)+ and ┌ smooth muscle actin (SMA)+ cells were analyzed after permeabilization using Cytofix/Cytoperm solution (BD Biosciences) for 15 min. After permeabilization, the cells were incubated for 30 min with anti-mouse cTnT (NeoMarkers) monoclonal antibody. […] Data were analyzed using FlowJo Version 7.5.4 software (TreeStar).
compound,measurement,setting,value
O=c1cc(N2CCOCC2)oc2c(-c3ccccc3)cccc12 [LY294002],ROCK suppression-induced differentiation and expansion of ECs,Flk1+ MPCs [1]; LY294002 20 μM with Y27632 under VEGF-A stimulus,almost completely suppressed
same,CD31+/CD144+ EC population,"Flk1+ MPCs [1]; inhibitor treated with VEGF-A, day 6.5",strongly reduced
O=S(=O)(c1cccc2c(I)cccc12)N1CCCNCC1 [ML7],reduction of αSMA+MC population,Flk1+ MPCs [2],~31%
O=C(Nc1ccncc1)Nc1c(Cl)cc(Cl)cc1Cl [RKI-II],EC population,Flk1+ MPCs [1],similarly increased
Cc1cncc2cccc(S(=O)(=O)N3CCCNC[C@@H]3C)c12 [RKI],EC population,Flk1+ MPCs [1],similarly increased
VEGF-Trap: blocks the action of VEGF-A; prepared as previously described,ROCK suppression-induced expansion of ECs,Flk1+ MPCs [1]; pretreatment of VEGF-Trap (5 μg/ml) during differentiation,totally abolished

# Reference: patent US20150368617A1, “METHOD FOR FORMING ENDOTHELIAL CELLS” (Korea Advanced Institute of Science and Technology (KAIST), priority 2012, published 2015)
